Test system: CSNK2A1
Assay: CSNK2A1 siRNA knockdown by qPCR in Hela, primary cortical neurons and primary hippocampal neurons
Type: cell-based, human, rat
Settings: lipoplex with cholesterol 1:0.5, 30 nM siRNA, 24 h, FIG. 5
Excerpt: Some lipids of the present invention were formulated into lipid compositions, which also comprise cholesterol or DOPE, buffers and ethanol. Animal origin-free cholesterol was purchased from Sigma-Aldrich (St Louis, MO) and DOPE was purchased from Avanti Lipids (Alabaster, AL). Silencer® Select CSNK2A1 siRNA and Silencer® Select negative control siRNA (cat #4390824 siRNA id#s3637 and cat #4390843) having the antisense sequence […] (SEQ ID NO:2) and […] (SEQ ID NO:3), respectively, were resuspended with nuclease-free water to a stock concentration of 50 μM, which were further diluted to meet downstream experiments and is commercially available from Life Technologies (Carlsbad, CA).
For compounds 83 and 67, the dry powder lipids were re-suspended in ethanol at a final concentration of 1 mg/ml and either used as lipid alone (Compound 83) or combined with cholesterol in 1:0.5 ratio (Compound 67). The formulations tested were made as described in Table 3
Primary rat cortex neuronal cells were purchased from GIBCO (Cat. No. A10840) and maintained in Neurobasal™ medium (cat #21103-049) supplemented with 2% B-27® Serum-free (50× cat #17504-044) and 0.5 mM GlutaMAX™ (cat #35050-061). […]

SMILES: CCCCCCCCCCCCNC(=O)CNCCCN(CCCCNCCCN(CC(=O)NCCCCCCCCCCCC)CC(=O)NCCCCCCCCCCCC)CC(=O)NCCCCCCCCCCCC [Compound 67]
- relative percent of CSNK2A1 remaining activity normalized to negative control: do possess activity in vitro
